From ChEMBL document CHEMBL5154729, “A fragment integrational approach to GPCR inhibition: Identification of a high affinity small molecule CXCR4 antagonist” (Eur J Med Chem, 2022)
Activity calls are given as the source filed them. The calls are words filed in the database; no cut-off is given here.

Tests used:
[1] = molecular target: T1, C-X-C chemokine receptor type 4 (Homo sapiens, UniProt P61073); test: Antagonist activity at CXCR4 receptor in human SUP-T1 assessed as inhibition of SDF-1alpha-induced CXCR4 internalization at 0.1 to 10 uM and measured by flow cytometry analysis; type: functional, cell-based; conditions: filed as antagonist, dose 0.1-10 µM, DDE = dose-dependent effect
T1 sequence (P61073 whole entry): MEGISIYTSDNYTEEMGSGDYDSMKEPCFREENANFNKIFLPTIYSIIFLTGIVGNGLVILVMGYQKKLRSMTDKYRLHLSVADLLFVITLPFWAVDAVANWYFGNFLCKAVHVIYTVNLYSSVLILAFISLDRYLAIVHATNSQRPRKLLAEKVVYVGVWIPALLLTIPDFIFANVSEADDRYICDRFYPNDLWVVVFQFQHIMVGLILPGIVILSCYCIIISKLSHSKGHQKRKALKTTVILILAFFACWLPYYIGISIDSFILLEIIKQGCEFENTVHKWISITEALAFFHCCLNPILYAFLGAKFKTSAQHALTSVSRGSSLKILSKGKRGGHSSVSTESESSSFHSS

[2] = test system: C-X-C chemokine receptor type 4 (Homo sapiens), P61073 [D262A]; test: Binding affinity to CXCR4 D262A mutant (unknown origin) expressed in CHO cells at 100 nM measured by 12G5 competitive binding method; type: cell-based; conditions: filed as antagonist
Chain of C-X-C chemokine receptor type 4 (Homo sapiens), P61073 [D262A] (P61073 whole entry D262A): as the sequence (P61073 whole entry) above, with D262A counted along it

[3] = molecular target: T1, C-X-C chemokine receptor type 4; test: Binding affinity to CXCR4 (unknown origin) expressed in CHO cells measured by 12G5 competitive binding method; type: cell-based
[4] = test system: C-X-C chemokine receptor type 4 (Homo sapiens), P61073 [E288A]; test: Binding affinity to CXCR4 E288A mutant (unknown origin) expressed in CHO cells at 100 nM measured by 12G5 competitive binding method; type: cell-based; conditions: filed as antagonist
Chain of C-X-C chemokine receptor type 4 (Homo sapiens), P61073 [E288A] (P61073 whole entry E288A): as the sequence (P61073 whole entry) above, with E288A counted along it

[5] = molecular target: T1, C-X-C chemokine receptor type 4; test: Antagonist activity at CXCR4 receptor expressed in CHO cells transfected with SRE-luc2P assessed as reduction in SDF-1alpha-mediated ERK/MAPK activation at 10 uM and measured by luciferase reporter gene assay; type: functional, cell-based; conditions: filed as antagonist
[6] = molecular target: T1, C-X-C chemokine receptor type 4; test: Antagonist activity at CXCR4 receptor in CHO cells expressing EGFP-CXCR4 assessed as inhibition of SDF-1alpha-induced CXCR4 internalization at 1 to 100 nM and measured by confocal microscopy; type: functional, cell-based; conditions: filed as antagonist, dose 1-100 nM
[7] = molecular target: T1, C-X-C chemokine receptor type 4; test: Antagonist activity at CXCR4 receptor expressed in CHO cells transfected with […] assessed as reduction in SDF-1alpha-mediated RhoA activation at 10 uM and measured by luciferase reporter gene assay; type: functional, cell-based; conditions: filed as antagonist
[8] = test system: C-X-C chemokine receptor type 4 (Homo sapiens), P61073 [E288D]; test: Binding affinity to CXCR4 E288D mutant (unknown origin) expressed in CHO cells at 100 nM measured by 12G5 competitive binding method; type: cell-based; conditions: filed as antagonist
Chain of C-X-C chemokine receptor type 4 (Homo sapiens), P61073 [E288D] (P61073 whole entry E288D): as the sequence (P61073 whole entry) above, with E288D counted along it

[9] = test system: Human immunodeficiency virus 1; test: Antiviral activity against HIV1 NL4-3 virus infected in human CEM-GFP cells assessed as reduction in CXCR4-mediated HIV-1 infection at 0.1 to 10000 nM measured by fluorescence assay; type: functional, organism-based; conditions: dose 0.1-10000 nM
CHO = test: Binding affinity to CXCR4 D262E mutant (unknown origin) expressed in CHO cells at 100 nM measured by 12G5 competitive binding method; type: cell-based; conditions: Homo sapiens, filed as antagonist
CCRF-CEM = test: Cytotoxicity against human CEM-GFP cells at 0.32 to 25000 nM measured by CellTiter-Blue cell viability assay; type: toxicity, cell-based; conditions: 25 µM, dose 0.32-25000 nM
SUP-T1 = test: Cytotoxicity against human SUP-T1 cells at 10 to 50 uM after 72 hrs CellTiter-96 assay; type: toxicity, cell-based; conditions: sup-t1, 72 h, dose 10-50 µM
[10] = molecular target: T1, C-X-C chemokine receptor type 4; test: Antagonist activity at CXCR4 receptor in SDF-1alpha-stimulated human SUP-T1 cells measured by calcium mobilization assay; type: functional, cell-based
[11] = molecular target: T1, C-X-C chemokine receptor type 4; test: Antagonist activity at CXCR4 receptor expressed in CHO cells transfected with NFAT-RE-luc2P assessed as reduction in SDF-1alpha-mediated calcium signaling pathway at 10 uM and measured by luciferase reporter gene assay; type: functional, cell-based; conditions: filed as antagonist
[12] = molecular target: T1, C-X-C chemokine receptor type 4; test: Antagonist activity at CXCR4 receptor expressed in CHO cells transfected with CRE-luc2P assessed as reduction in forskolin-stimulated SDF-1alpha-mediated inhibition of cAMP production at 10 uM and measured by luciferase reporter gene assay; type: functional, cell-based; conditions: filed as antagonist
[13] = molecular target: T1, C-X-C chemokine receptor type 4; test: Binding affinity to CXCR4 (unknown origin) expressed in CHO cells measured by Scatchard plot analysis; type: cell-based

Compound | inhibition [1] | Activity [2] [%] | IC50 [3] [nM] | Activity [4] [%] | Activity [5] | inhibition [6] | Activity [7] | Activity [8] [%] | Activity [9] | Activity (CHO) [%] | Activity (CCRF-CEM) | Activity (SUP-T1) | IC50 [10] [nM] | Activity [11] | Activity [12] | Kd [13] [nM]
c1cc(CN2CCCNCCNCCCNCC2)ccc1CN1CCCNCCNCCCNCC1 | Dde |  |  |  |  |  |  |  |  |  |  |  |  |  |  | 
N=C(N)NCCC[C@H](NCc1ccccn1)C(=O)NCc1ccc(CNCCCNC2CCCCC2)cc1 | Dde | > 40 | 12 | > 90 | Active | Active | Active | > 60 | Active | > 60 | Non-Toxic | Non-Toxic | 1.6 | Active | Active | 
N/C(=N\C(=O)CCCCCNC(=S)Nc1ccc2c(c1)C(=O)OC21c2ccc(O)cc2Oc2cc(O)ccc21)NCCC[C@H](NCc1ccccn1)C(=O)NCc1ccc(CNCCCNC2CCCCC2)cc1 |  |  |  |  |  |  |  |  |  |  |  |  |  |  |  | 33
